Measured values as given in patent publication US20250268856A1, “Pain Relieving Method” (Animal Ethics Pty Ltd, priority 2019, published 2025).
Where “and” joins values, the source holds several entries; their conditions need not be identical. Identical values can stand only once.

Key:
[1] = Study 1: porcine plasma profiles of tetracaine and meloxicam applied topically to the castration surgical site; format: in vivo
Experimental: Dose Calculation, Preparation & Administration: Study animals were dosed according to the Treatment Regime outlined in Table 4 below. No preparation of any of the IVPs was performed other than inversion of each container 2-3 times prior to treatment.
Blood Analysis: Blood samples were collected from allocated animals via anterior vena-caval puncture using 21G, 1.5″ needle attached to 10 mL syringes and transferred immediately into 5 mL lithium heparin blood tubes. Blood samples were processed for extraction of plasma on the day of collection, which for each sample was stored in duplicate, frozen (˜−18° C.). Replicate 1 plasma samples were forwarded frozen to a laboratory for tetracaine and meloxicam analyses after the conclusion of the animal phase.
Study animals were dosed according to the application rates detailed in Table 4. No preparation of any of the IVPs was required prior to dosing.
Castration was performed using a sterile scalpel as per the following process: • 1. Piglet to be gently restrained (for a minimum of 30 seconds prior to incision) in Kerble piglet cradle in order to expose the ano-genital region of the piglet. • 2. Only when piglet is settled, incise scrotum (including tunica) with one single transverse incision to expose and exteriorise each testis; • 3. Immediately apply treatment (40% total dose to each side) to coat the exposed spermatic cord and the cut skin edge. […] Wait 30 seconds; • 5. The testis may then be removed by severing the cord as per routine procedure. Remove each testis as per normal procedure. • 6. Apply the remaining 20% of the total dose evenly of the surface of the surgical wound.

[2] = Study 2: motor response scores to the procedure of castration; format: in vivo, piglets; details: during the procedure (castration), versus placebo, topical to open wound
Experimental: (§1) Study 2: A follow-up study confirmed efficacy of meloxicam analgesic effects when applied to piglets via topical wound application either alone or in combination with tetracaine 2%. Piglets were treated with placebo, meloxicam 0.1%, tetracaine 2% or a combination of tetracaine 2% and meloxicam 1%, otherwise formulated as above, and examined for clinical efficacy via documentation of motor response scores to a) the procedure of castration, and b) pre- and post-operative mechanical sensory testing of the wound site using Von-Frey filament testing.

[3] = Study 2: post-operative mechanical sensory testing of the wound site using Von-Frey filament testing (motor response scores); format: in vivo, piglets; details: versus placebo
Experimental: as §1

[4] = In-house trials of tetracaine applied directly to the open castration wound; format: in vivo, piglets; details: applied to open castration wound 20 seconds prior to severing cordal tissues, 1 ml/kg of 2% or 5% solution
Description: Tetracaine is a rapid onset surface anaesthetic, that is rapidly metabolised by plasma-esterases, such that may induce high potency local effects with minimal systemic effects. […] Topical wound application formulations were thus developed to examine the potential for systemic NSAID analgesic drug (meloxicam) delivery via topical wound application, applied alone, or combined with topical local anaesthetic (tetracaine) to the castration wound in piglets. Topical wound application formulations were developed containing meloxicam alone, tetracaine alone and combinations of meloxicam and tetracaine to examine systemic absorption and clinical effects.

[5] = male, pig, in vivo

**Q.** Which results are given for `Cc1cnc(NC(=O)C2=C(O)c3ccccc3S(=O)(=O)N2C)s1` [Meloxicam]?
**A.** Meloxicam concentration in porcine plasma ([1]; 15 min post-treatment, individual piglets, topical to castration wound): 144.8 ng/mL and 119.8 ng/mL and 81.8 ng/mL and 88.2 ng/mL; Meloxicam concentration in porcine plasma ([1]; 30 min post-treatment, individual piglets, topical to castration wound): 166.0 ng/mL and 94.6 ng/mL and 101.3 ng/mL and 104.8 ng/mL; Meloxicam concentration in porcine plasma ([1]; 1 hr post-treatment, individual piglets, topical to castration wound): 102.9 ng/mL and 118.0 ng/mL; Meloxicam concentration in porcine plasma ([1]; 2 hr post-treatment, individual piglets, topical to castration wound): 126.7 ng/mL and 238.9 ng/mL; Meloxicam concentration in porcine plasma ([1]; 4 hr post-treatment, individual piglets, topical to castration wound): 100.9 ng/mL and 458.7 ng/mL and 63.3 ng/mL and 230.0 ng/mL and 244.6 ng/mL and 113.2 ng/mL; Sustained plasma levels of meloxicam ([1]; group level (FIG. 4)): 100 to 200 ng/mL; concentration at 15 min ([1]; male, pig, plasma, topical, 15 min post-treatment, individual piglets, topical to castration wound): 86.9 ng/mL; concentration at 30 min ([1]; male, pig, plasma, topical, 30 min post-treatment, individual piglets, topical to castration wound): 109 ng/mL; concentration at 1 hr ([1]; male, pig, plasma, topical, 1 hr post-treatment, individual piglets, topical to castration wound): 190 ng/mL; concentration at 2 hr ([1]; male, pig, plasma, topical, 2 hr post-treatment, individual piglets, topical to castration wound): 126 ng/mL; Time of peak plasma meloxicam level ([1]; post-treatment, group level (FIGS. 4, 5)): 4 h

**Q.** Which “Time of peak plasma tetracaine level” value ([1]; male, pig, in vivo) does the source give for `CCCCNc1ccc(C(=O)OCCN(C)C)cc1` [Tetracaine] here?
**A.** The value was 1 h.

**Q.** What about the Motor response scores [2] of the same molecule?
**A.** The Motor response scores was “significant reduction”.

**Q.** And the Motor response scores ([3]; 1 minute following the procedure)?
**A.** Its Motor response scores is “significant reduction”.

**Q.** And the Motor response scores ([3]; 1 hour following the procedure)?
**A.** The Motor response scores was “anaesthetic effects were still evident”.

**Q.** And the Motor response scores ([3]; 12 hours following the procedure)?
**A.** The Motor response scores was “rebound hyperaesthesia”.

**Q.** What about the “Pain during castration and in the first minutes and 1-2 hours following” value [4] of the same molecule?
**A.** Its value is “effective to ameliorate pain”.

**Q.** Which “Period plasma levels remained at those levels” value [5] does the source give for `CCCCN1CCCCC1C(=O)Nc1c(C)cccc1C` (stereo not drawn) [bupivacaine] here?
**A.** The value was 24 h.
